Data: patent US6750232B2, “2-aminopyridine compounds and use thereof as drugs” (Eisai Co., Ltd., priority 2000, dated 2004)

What was measured:
[1] = target: T1, human adenosine A1 receptor (Homo sapiens, UniProt P30542); assay: Measurement of the ability to bind to adenosine A1 receptor (3H-CCPA binding inhibition); details: membrane of CHOK1 cells expressing human A1 receptor, Cheng-Prusoff
T1 construct: expressed in transfected cells; host or cells: CHOK1 cells (membrane sample)
T1 sequence (P30542 1-326): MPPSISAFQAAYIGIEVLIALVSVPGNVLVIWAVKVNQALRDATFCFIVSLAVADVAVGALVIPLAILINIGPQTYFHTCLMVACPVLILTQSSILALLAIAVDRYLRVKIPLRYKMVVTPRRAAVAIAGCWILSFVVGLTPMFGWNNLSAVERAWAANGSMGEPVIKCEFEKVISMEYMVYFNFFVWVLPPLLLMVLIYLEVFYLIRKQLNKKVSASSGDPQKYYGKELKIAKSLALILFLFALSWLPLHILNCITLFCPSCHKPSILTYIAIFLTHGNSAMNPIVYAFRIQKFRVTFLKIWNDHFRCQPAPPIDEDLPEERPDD
Method: Measurement of the Ability to Bind to Adenosine A1 Receptor
A human adenosine A1 receptor cDNA was expressed in excess in CHOK1 cells, and this membrane sample was added at a protein concentration of 66.7 μg/ml to, and suspended in, 20 mM HEPES buffer, pH 7.4 (10 mM MgCl2, 100 mM NaCl). To 0.45 ml of this membrane sample suspension were added 0.025 ml of 60 nM tritium-labeled chlorocyclopentyl adenosine (^3H—CCPA, from NEN Ltd.) and 0.025 ml test compound. This mixture was left at 30° C. for 120 minutes, filtered rapidly under suction through a glass fiber filter (GF/B, from Whatman), and immediately washed twice with 5 ml of 50 mM water-cooled Tris-HCl buffer. Thereafter, the glass fiber filter was transferred to a vial, a scintillator was added thereto, and the radioactivity on the filter was measured by a liquid scintillation counter. The inhibition of binding of ^3H—CCPA to A1 receptor by the test compound was determined using the following formula, and from this inhibition, 50% inhibition concentration (IC50) was calculated (the following equation).
Inhibition (%)=[1−{binding in the presence of the test compound-non-specific binding)/(total binding-non-specific binding)}]×100
In the above formula, the total binding means ^3H—CCPA-bound radioactivity in the absence of the test compound; the non-specific binding means ^3H—CCPA-bound radioactivity in the presence of 100 μM RPIA ([R]-[1-methyl-2-phenylethyl] adenosine); and the binding in the presence of the test compound means ^3H—CCPA-bound radioactivity in the presence of the test compound at predetermined concentrations. The inhibition constant (Ki value) in the table was determined from the formula of Cheng-Prusoff.

[2] = target: T2, adenosine A2a receptor (Homo sapiens, UniProt P29274); assay: Measurement of the ability to bind to adenosine A2a receptor (3H-CGS21680 binding inhibition); details: A2a receptor membrane sample, 3H-CGS21680, Cheng-Prusoff
T2 construct: purchased Receptor Biology Inc
T2 sequence (P29274 whole entry): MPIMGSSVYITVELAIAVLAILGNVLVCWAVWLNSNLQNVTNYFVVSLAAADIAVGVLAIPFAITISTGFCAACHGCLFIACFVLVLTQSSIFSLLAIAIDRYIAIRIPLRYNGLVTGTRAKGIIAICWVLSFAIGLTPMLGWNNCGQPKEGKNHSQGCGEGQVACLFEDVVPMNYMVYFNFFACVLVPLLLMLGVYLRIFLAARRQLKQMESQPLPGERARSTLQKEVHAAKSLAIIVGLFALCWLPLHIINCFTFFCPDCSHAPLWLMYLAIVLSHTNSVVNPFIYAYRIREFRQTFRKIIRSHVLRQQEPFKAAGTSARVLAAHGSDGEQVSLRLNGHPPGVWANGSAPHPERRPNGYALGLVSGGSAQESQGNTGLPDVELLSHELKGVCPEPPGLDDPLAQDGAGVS
Method: Measurement of the Ability to Bind to Adenosine A2a Receptor
An experiment of inhibition of binding to adenosine A2a receptor was conducted using a membrane sample (Receptor Biology Inc.) where an adenosine A2a receptor cDNA was expressed in excess. This membrane sample was added at a protein concentration of 22.2 μg/ml to, and suspended in, 20 mM HEPES buffer, pH 7.4 (10 mM MgCl2 and 100 mM NaCl). To 0.45 ml of this membrane sample suspension were added 0.025 ml of 500 nM tritium-labeled 2-p-[2-carboxyethyl]phenetylamino-5′-N-ethylarboxyamide adenosine (^3H—CGS21680, from NEN) and 0.025 ml test compound. This mixture was left at 25° C. for 90 minutes, filtered rapidly under suction through a glass fiber filter (GF/B, from Whatman), and immediately washed twice with 5 ml of 50 mM water-cooled Tris-HCl buffer. Thereafter, the glass fiber filter was transferred to a vial, a scintillator was added thereto, and the radioactivity on the filter was measured by a liquid scintillation counter. The inhibition of binding of ^3H—CGS21680 to A2a receptor by the test compound was determined using the following formula, and from this inhibition, 50% inhibition concentration (IC50) was calculated.
Inhibition (%)=[1−{binding in the presence of the test compound-nonspecific binding)/(total binding-nonspecific binding)}]×100
Here, the total binding means ^3H—CGS21680-bound radioactivity in the absence of the test compound; the nonspecific binding means ^3H—CGS21680-bound radioactivity in the presence of 100 μM RPIA; and the binding in the presence of the test compound means ^3H—CGS21680-bound radioactivity in the […] of the test compound at predetermined concentrations. The inhibition constant (Ki value) in the table was determined from the formula of Cheng-Prusoff.

[3] = target: T3, human adenosine A2b receptor (Homo sapiens, UniProt P29275); assay: Inhibition of NECA-stimulated production of cAMP in adenosine A2b receptor-expressing cells; format: cell-based; details: CHOK1 cells expressing human A2b receptor, 30 nM NECA
T3 construct: expressed in transfected cells; host or cells: CHOK1 cells
T3 sequence (P29275 1-332): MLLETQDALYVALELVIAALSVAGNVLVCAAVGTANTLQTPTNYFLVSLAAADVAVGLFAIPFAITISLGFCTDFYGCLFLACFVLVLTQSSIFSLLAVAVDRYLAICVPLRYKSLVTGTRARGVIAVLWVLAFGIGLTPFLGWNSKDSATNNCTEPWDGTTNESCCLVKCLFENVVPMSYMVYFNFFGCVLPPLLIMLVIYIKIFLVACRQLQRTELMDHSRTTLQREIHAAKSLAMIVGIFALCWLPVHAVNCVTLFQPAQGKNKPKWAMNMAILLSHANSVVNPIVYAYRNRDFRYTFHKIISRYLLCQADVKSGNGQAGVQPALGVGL
Method: Experiment of Inhibition of NECA-stimulated Production of cAMP in Adenosine A2b Receptor-expressing Cells
CHOK1 cells where a human adenosine A2b receptor had been expressed in excess were plated onto a 24-well plate at a density of 1.5×10^5 cells/well, cultured overnight, and used in the experiment. The degree of inhibitory effect of the test compound on the amount of cAMP produced by stimulation with 30 nM 5′-N-ethylcarboxyamide adenosine (NECA from Sigma) was evaluated in terms of affinity for A2b receptor. That is, the adhering cells were washed twice with 2 ml/well Krebs-Ringer buffer solution (containing 0.1% BSA; pH 7.4) and pre-incubated for 30 minutes in a volume of 0.5 ml/well. Then, a mixed solution containing NECA and the test compound was added in a volume of 0.1 ml/well in the presence of a phosphodiesterase inhibitor Ro-20-1724 (a product of RBI). After pre-incubation for 15 minutes, the reaction was terminated with 0.1 N HCl in a volume of 300 μl/well. Measurement of intracellular cAMP was carried out using a cAMP enzyme immunoassay kit produced by Amersham. The inhibition of NECA-stimulated production of cAMP by the test compound was determined using the following equation:
Inhibition (%)=[1−{(amount of cAMP in the coexistence of NECA and the test compound-amount of CAMP in only the Krebs-Ringer buffer solution)/(amount of CAMP upon stimulation with NECA only-amount of cAMP in only the Krebs-Ringer buffer solution)}]×100

[4] = tested on: SD IGS rats; assay: Evaluation of defecation-promoting action; format: in vivo, rat; details: oral, 90 minutes after administration, per cage
Excerpt: Evaluation of Defecation-Promoting Action
The defecation-promoting action of the adenosine A2b receptor-inhibiting compound which was identified by measuring the binding ability and inhibitory ability thereof to the adenosine receptor in Test Example 1, a salt thereof, a hydrate of them, or a pharmaceutical composition containing it can be evaluated on the basis of the following method. That is, SD IGS rats (6 weeks-old, from Charles River) were placed in cages (3 animals/cage) and preliminarily allowed food and water ad libitum and raised for 1 week. Then, a tared water-absorbing sheet was placed below each cage, and the animals were fasted but allowed water ad libitum throughout the experiment. After 1.5 hours, the fecal pellets were recovered from each cage and observed for abnormality before the experiment. The compound suspended or dissolved in 0.5% (w/v) methyl cellulose (MC) was orally administered in a dose of 5 ml/kg. On one hand, 0.5% (w/v) MC only was orally given to the control group. After administration of the compound, the rats were returned to the cage provided with a new water-absorbing sheet, and 90 minutes after the administration, the fecal pellets on the water-absorbing sheet were recovered from each cage, and the external appearance was observed, and then counted and weighed. The number of fecal pellets is expressed per each cage. After the fecal pellets were recovered, the water-absorbing sheet was weighed, and the weight determined by subtracting the initial weight of the water-adsorbing sheet from the weight after the experiment was regarded as the volume of urine.

With `N#Cc1cc(-c2ccncc2)c(-c2ccco2)nc1N` [Example 1, 2-Amino-6-(2-furyl)-5-(4-pyridyl)-3-pyridinecarbonitrile] the Ki [1] was 990 nM, the Ki [2] was 23 nM and the IC50 [3] was 2.7 nM. The “The number of fecal pellets” value ([4]; 1 mg/kg) was 1.75 ± 1.03, the “The number of fecal pellets” value ([4]; 3 mg/kg) was 7.25 ± 1.65 and the “The number of fecal pellets” value ([4]; 10 mg/kg) was 22.25 ± 2.93.
Compound “2-Amino-6-(fluorophenyl)-5-(4-pyridyl)-3-pyridinecarbonitrile [Example 2]” has a Ki [1] of 66 nM, a Ki [2] of 22 nM and an IC50 [3] of 3.7 nM. The “The number of fecal pellets” value ([4]; 1 mg/kg) was 7.80 ± 0.20 and the “The number of fecal pellets” value ([4]; 10 mg/kg) was 18.00 ± 1.30.
`CCn1cc(-c2cc(C#N)c(N)nc2-c2ccco2)ccc1=O` [Example 5, 2-Amino-5-(1-ethyl-6-oxo-1,6-dihydro-3-pyridinyl)-6-(2-furyl)nicotinonitrile] showed a Ki [1] of 400 nM, a Ki [2] of 7 nM and an IC50 [3] of 6.5 nM. The “The number of fecal pellets” value ([4]; 1 mg/kg) was 7.00 ± 1.23 and the “The number of fecal pellets” value ([4]; 3 mg/kg) was 14.25 ± 3.38.
